Assay results from PMC6695747, “Primaquine and Chloroquine Fumardiamides as Promising Antiplasmodial Agents” (Molecules, 2019).
Read-outs that look alike come from different tables or passages of the source.

Legend:
[1] = system: P. falciparum PfDd2 (CQ-resistant) erythrocytic stages; assay: In vitro drug sensitivity assay (HRP2-ELISA) against erythrocytic stages, strain Dd2; format: cell-based; conditions: Plasmodium falciparum, 72 h, read-out: IC50 PfDd2
Method: (§1) Antiplasmodial activity of fumardiamides 1–6 and 11–16 was tested in a drug sensitivity assay against two laboratory P. falciparum strains (3D7—CQ-sensitive, and Dd2—CQ-resistant), as previously described, using the histidine-rich protein 2 (HRP2) assay. In brief, 96-well plates were pre-coated with the tested compounds in a three-fold dilution before ring stage parasites were added in complete culture medium at a hematocrit of 1.5% and a parasitaemia of 0.05%. After three days of incubation at 37 °C, 5% CO2, and 5% oxygen, plates were frozen until analyzed by HRP2-ELISA. All compounds were evaluated in duplicate in at least two independent experiments. The IC50 was determined by analysing the nonlinear regression of log concentration-response curves using the drc-package v0.9.0 of R v2.6.1 [27].

[2] = system: P. falciparum Pf3D7 (CQ-sensitive) erythrocytic stages; assay: In vitro drug sensitivity assay (HRP2-ELISA) against erythrocytic stages, strain 3D7; format: cell-based; conditions: Plasmodium falciparum, 72 h, read-out: IC50 Pf3D7
Method: as §1

[3] = system: P. berghei hepatic stages; assay: In vitro activity against P. berghei hepatic stages (luciferase parasite load in Huh7 cells); format: cell-based; conditions: Plasmodium berghei, Huh-7, read-out: IC50 P. bergei
Method: In vitro activity of the tested compounds against the liver stage of P. berghei infection was assessed as previously described. […] Next, 10 mM stock solutions of test compounds were prepared in DMSO and were serially diluted in infection medium, i.e., culture medium supplemented with gentamicin (50 μg/mL) and amphotericin B (0.8 μg/mL), in order to obtain the test concentrations.
To assess the effect of each compound concentration in cell viability, at 46 hours post-infection (hpi), cultures were incubated with Alamar Blue (Thermo Fisher Scientific, Waltham, MA, USA), according to the manufacturer’s recommendations. Parasite load was then assessed by the bioluminescence assay (Biotium, Fremont, CA, USA), using the multi-plate reader Infinite M200 (Tecan, Männedorf, Switzerland). Nonlinear regression analysis was employed to fit the normalized results of the dose–response curves, and IC50 values were determined using GraphPad Prism 6.0 (GraphPad Software, La Jolla California USA).

[4] = system: HEK293T (non-tumour embryonic kidney); assay: Cytotoxicity MTT assay, HEK293T; format: cell-based; conditions: Homo sapiens, HEK-293T, read-out: IC50 HEK293T
Method: (§2) The experiments were carried out on 2 human cell lines: MCF-7 (breast carcinoma) and HEK293T (embryonic kidney). MCF-7 and HEK293T cells were cultured as monolayers and maintained in Dulbecco’s modified Eagle medium (DMEM), supplemented with 10% fetal bovine serum (FBS), 2 mM L-glutamine, 100 U/mL penicillin, and 100 μg/mL streptomycin in a humidified atmosphere with 5% CO2 at 37 °C. The panel cell lines were inoculated in parallel onto a series of standard 96-well microtiter plates on day 0, at 1 × 10^4 to 3 × 10^4 cells/mL, depending on the doubling time of a specific cell line. Test compounds were then added in five 10-fold dilutions (10^−8 to 10^−4 M) alone or in combination with 6-AN (c = 1 µM) and incubated for a further 72 hours. Working dilutions were freshly prepared on the day of the testing.
(§3) After 72 hours of incubation, the cell growth rate was evaluated by performing the MTT assay. The absorbance was directly proportional to cell viability. Each test point was performed in quadruplicate in three individual experiments. The IC50 values were calculated from the dose–response curves using linear regression analysis. Each result is a mean value from at least two separate experiments.

[5] = system: MCF-7 (breast adenocarcinoma); assay: Cytotoxicity MTT assay, MCF-7; format: cell-based; conditions: Homo sapiens, read-out: IC50 MCF-7
Method: as §2, §3

[6] = set-up: method as in PMID 24360369; conditions: cited from earlier work
[7] = erythrocytic stages, CQ-resistant strain, three days of incubation, HRP2-ELISA
[8] = erythrocytic stages, CQ-sensitive strain, three days of incubation, HRP2-ELISA

SMILES | IC50 [1, 7] | IC50 [2, 8] | IC50 [3] | further results
CCN(CC)CCCC(C)Nc1ccnc2cc(Cl)ccc12 (stereo not shown) [CQ, chloroquine] |  |  |  | IC50 [1]: 241 nM; IC50 [2]: 3.7 nM
COc1cc(NC(C)CCCNC(=O)/C=C/C(=O)Nc2cccc(F)c2)c2ncccc2c1 (stereo not shown) [Compound 1] | 20000 nM | 13800 nM |  | 
COc1cc(NC(C)CCCNC(=O)/C=C/C(=O)Nc2ccc(F)cc2)c2ncccc2c1 (stereo not shown) [Compound 2] | > 13000 nM | 7740 nM |  | 
COc1cc(NC(C)CCCNC(=O)/C=C/C(=O)Nc2cccc(Cl)c2)c2ncccc2c1 (stereo not shown) [Compound 3] | 13600 nM | > 13000 nM | 270 ± 60 nM | 
COc1cc(NC(C)CCCNC(=O)/C=C/C(=O)Nc2ccc(Cl)cc2)c2ncccc2c1 (stereo not shown) [Compound 4] | > 13000 nM | > 13000 nM | 390 ± 10 nM | 
COc1cc(NC(C)CCCNC(=O)/C=C/C(=O)Nc2cccc(C(F)(F)F)c2)c2ncccc2c1 (stereo not shown) [Compound 5] | 10700 nM | 13900 nM | 270 ± 80 nM | IC50 ([4]; alone, 72 hours, MTT): ≥ 100000 nM; IC50 ([5]; MCF7, alone, 72 hours, MTT): ≥ 100000 nM
NC(=O)c1ccc(N)nc1 [Compound 6-AN, 6-aminonicotinamide, reference compound] |  |  |  | IC50 ([4]; 72 h): 10000 ± 7000 nM; IC50 ([5]; MCF7, 72 h): 2000 ± 300 nM
COc1cc(NC(C)CCCNC(=O)/C=C/C(=O)Nc2ccc(C(F)(F)F)cc2)c2ncccc2c1 (stereo not shown) [Compound 6] | 18400 nM | 13000 nM | 110 ± 20 nM | IC50 ([4]; alone, 72 hours, MTT): ≥ 100000 nM; IC50 ([5]; MCF7, alone, 72 hours, MTT): ≥ 100000 nM
O=C(/C=C/C(=O)Nc1cccc(F)c1)NCCCCNc1ccnc2cc(Cl)ccc12 [Compound 11, (2E)-N’-{4-[(7-chloroquinolin-4-yl)amino]butyl}-N-(3-fluorophenyl)but-2-enediamide] | 7020 nM | 144 nM |  | 
O=C(/C=C/C(=O)Nc1ccc(F)cc1)NCCCCNc1ccnc2cc(Cl)ccc12 [Compound 12, (2E)-N’-{4-[(7-chloroquinolin-4-yl)amino]butyl}-N-(4-fluorophenyl)but-2-enediamide] | 1880 nM | 67 nM |  | melting point: 239 °C (dec.)
O=C(/C=C/C(=O)Nc1cccc(Cl)c1)NCCCCNc1ccnc2cc(Cl)ccc12 [Compound 13, (2E)-N-(3-chlorophenyl)-N’-{4-[(7-chloroquinolin-4-yl)amino]butyl}but-2-enediamide] | 6960 nM | 83 nM |  | 
O=C(/C=C/C(=O)Nc1ccc(Cl)cc1)NCCCCNc1ccnc2cc(Cl)ccc12 [Compound 14, (2E)-N-(4-chlorophenyl)-N’-{4-[(7-chloroquinolin-4-yl)amino]butyl}but-2-enediamide] | 890 nM | 35 nM |  | melting point: 237 °C (dec.)
O=C(/C=C/C(=O)Nc1cccc(C(F)(F)F)c1)NCCCCNc1ccnc2cc(Cl)ccc12 [Compound 15, (2E)-N’-{4-[(7-chloroquinolin-4-yl)amino]butyl}-N-[3-(trifluoromethyl)phenyl]but-2-enediamide] | 3220 nM | 194 nM |  | 
O=C(/C=C/C(=O)Nc1ccc(C(F)(F)F)cc1)NCCCCNc1ccnc2cc(Cl)ccc12 [Compound 16, (2E)-N’-{4-[(7-chloroquinolin-4-yl)amino]butyl}-N-[4-(trifluoromethyl)phenyl]but-2-enediamide] | 379 nM | 35 nM |  | melting point: 270 °C (dec.)
COc1cc(NC(C)CCCN)c2ncccc2c1 (stereo not shown) [PQ, primaquine] | 1820 nM | 1990 nM | 8400 ± 3400 nM | 
COc1cc(C)c2c(Oc3cccc(C(F)(F)F)c3)c(OC)cc(NC(C)CCCN)c2n1 (stereo not shown) [TQ, Tafenoquine] |  |  |  | elimination half-life [6]: approximately 15 days
